Drawing on US20250034108A1, “SODIUM CHANNEL BLOCKERS” (NOVARTIS AG, priority 2023, published 2025), this text covers IC50 for 22 compounds.

In series [1] the target is T1, human Nav1.5 (Homo sapiens (Human), UniProt Q14524). Put plainly: Qpatch automated patch-clamp, peak Nav1.5 current inhibition, 5-Hz AF-like assay (holding potential -85 mV). It is filed as cell-based. From the text: (§1) Electrophysiology was used to measure the ionic currents in isolated living cells using automated patch-clamp recording, performed using an automated patch-clamp machine called Qpatch (Sophion Bioscience). Two different assay conditions were used to identify compounds with atrial-selective potential. The 5-Hz AF-like assay has more depolarized holding potential at −85 mV to mimic atrial resting membrane potential (RMP) and was used to identify compounds of strong rate-dependence. Active, rate-dependent compounds were then screened at 1 Hz (i.e., sinus rate) at the holding potential of −100 mV to mimic the ventricular scenario and help identify compounds with the largest potency separation or attenuation from the 5-Hz AF-like assay. Such compounds have the potential for treating AF without the QRS liability inherent to Class Ic drugs.
T1 sequence (Q14524 whole entry): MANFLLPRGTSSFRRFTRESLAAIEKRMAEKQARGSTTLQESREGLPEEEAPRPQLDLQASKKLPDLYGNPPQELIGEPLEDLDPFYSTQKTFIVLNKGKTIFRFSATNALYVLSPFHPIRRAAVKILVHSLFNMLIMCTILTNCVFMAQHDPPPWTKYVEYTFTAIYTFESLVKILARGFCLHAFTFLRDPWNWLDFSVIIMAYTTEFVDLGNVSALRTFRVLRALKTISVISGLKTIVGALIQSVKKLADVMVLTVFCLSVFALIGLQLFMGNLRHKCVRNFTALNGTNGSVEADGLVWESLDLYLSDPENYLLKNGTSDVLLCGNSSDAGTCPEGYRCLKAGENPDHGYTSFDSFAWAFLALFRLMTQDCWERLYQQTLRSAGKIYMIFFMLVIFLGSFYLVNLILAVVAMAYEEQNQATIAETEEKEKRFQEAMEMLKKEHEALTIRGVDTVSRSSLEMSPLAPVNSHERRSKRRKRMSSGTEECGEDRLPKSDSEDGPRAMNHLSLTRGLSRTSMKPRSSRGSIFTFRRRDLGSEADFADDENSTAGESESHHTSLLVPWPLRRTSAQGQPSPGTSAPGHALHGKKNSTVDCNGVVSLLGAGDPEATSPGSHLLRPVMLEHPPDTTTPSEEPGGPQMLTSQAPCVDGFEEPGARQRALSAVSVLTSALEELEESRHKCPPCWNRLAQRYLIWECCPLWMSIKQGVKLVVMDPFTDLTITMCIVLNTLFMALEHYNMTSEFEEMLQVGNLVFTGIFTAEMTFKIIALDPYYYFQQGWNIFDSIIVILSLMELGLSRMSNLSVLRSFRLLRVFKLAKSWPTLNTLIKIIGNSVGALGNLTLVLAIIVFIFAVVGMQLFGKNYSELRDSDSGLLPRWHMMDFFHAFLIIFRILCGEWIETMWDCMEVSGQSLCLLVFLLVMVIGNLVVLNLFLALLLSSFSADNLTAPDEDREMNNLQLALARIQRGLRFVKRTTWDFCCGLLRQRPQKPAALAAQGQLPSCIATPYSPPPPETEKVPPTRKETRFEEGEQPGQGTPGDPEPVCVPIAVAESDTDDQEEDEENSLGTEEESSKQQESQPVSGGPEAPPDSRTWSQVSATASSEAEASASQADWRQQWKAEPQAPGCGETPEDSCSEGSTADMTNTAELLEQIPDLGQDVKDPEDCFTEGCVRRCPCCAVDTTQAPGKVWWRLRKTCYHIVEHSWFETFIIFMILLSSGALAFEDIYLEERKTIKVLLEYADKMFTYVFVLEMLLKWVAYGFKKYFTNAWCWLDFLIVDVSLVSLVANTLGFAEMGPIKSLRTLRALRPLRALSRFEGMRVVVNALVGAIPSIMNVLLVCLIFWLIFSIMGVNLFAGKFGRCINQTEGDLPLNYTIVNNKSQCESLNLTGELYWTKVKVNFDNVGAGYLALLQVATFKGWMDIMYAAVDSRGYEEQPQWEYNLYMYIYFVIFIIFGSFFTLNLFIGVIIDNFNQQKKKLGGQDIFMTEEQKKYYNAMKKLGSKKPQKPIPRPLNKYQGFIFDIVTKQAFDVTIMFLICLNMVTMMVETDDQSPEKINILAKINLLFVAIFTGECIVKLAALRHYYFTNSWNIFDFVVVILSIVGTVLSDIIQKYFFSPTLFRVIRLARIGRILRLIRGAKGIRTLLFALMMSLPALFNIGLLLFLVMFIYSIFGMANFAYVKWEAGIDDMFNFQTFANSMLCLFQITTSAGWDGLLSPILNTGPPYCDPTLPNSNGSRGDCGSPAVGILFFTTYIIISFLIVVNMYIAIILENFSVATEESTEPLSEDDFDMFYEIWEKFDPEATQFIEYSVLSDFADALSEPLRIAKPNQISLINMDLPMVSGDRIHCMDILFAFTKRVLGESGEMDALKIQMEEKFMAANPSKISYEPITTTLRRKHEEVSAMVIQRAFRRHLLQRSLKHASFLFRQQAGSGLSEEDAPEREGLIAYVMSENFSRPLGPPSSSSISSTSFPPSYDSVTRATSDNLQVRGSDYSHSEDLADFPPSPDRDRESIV
(§2) The sodium current conducted through a cell (via Nav1.5) or electrical signals were processed through a low-pass filter at 5 KHz, re-digitalized and acquired at 20 kHz. Series resistance was not compensated and leak subtraction was performed.
(§3) 1 to 3 million Chinese Hamster Ovary cells (also known as CHO-K1) stably expressing human Nav1.5 were seeded into […] culture flasks with 25 mL medium (consisting of Gibco Dulbecco's Modified Eagle Medium as a base medium with 1% MEM non-essential amino acids, 400 μg/mL Geneticin, 5 μg/mL puromycin and 10% fetal bovine serum) 48-72 hours prior to the experiments. On the day of the experiment, cells were washed once with phosphate-buffered saline (also known as PBS; Gibco) detached with Detachin™ (Genlantis), and re-suspended in CHO—S-SFM II media (Gibco) at 200,000 cells/mL. The CHO—S-SFM II was replaced with assay solutions prior to the assays. Whole-cell currents were recorded at room temperature in the whole-cell configuration. The external aqueous assay solution (pH=7.4; Osm=307-315) contained the following (the concentration for each component is expressed in parentheses in mM): NaCl (140 mM), KCl (4 mM), CaCl2) (2 mM), MgCl2 (1 mM), 4-(2-hydroxyethyl)-1-piperazineethanesulfonic acid, also known as HEPES (10 mM), and glucose (5 mM). The internal aqueous assay solution (pH=7.2; Osm=292-295) contained the following (the concentration for each component is expressed in parentheses in mM): CsF (110 mM), CsCl (10 mM), NaCl (10 mM), HEPES (10 mM), and ethylene glycolbis(β-aminoethyl ether)-N,N,N′,N′-tetraacetic acid, also known as EGTA (10 mM).
To assess peak Nav1.5 current inhibition in an atrial fibrillation-mimicking condition (Nav1.5 IC50 (5 Hz, AF-like rate) (μM)), compounds were first prepared at 10 mM in DMSO, and cells were pre-incubated with test compounds at each concentration for 3 min. in an ascending order of 0, 0.37, 1.1, 3.3, 10 and 30 μM. An atrial action potential-like protocol consisting of a voltage ramp (+10 mV to −85 mV for a 150 ms duration and a holding potential at −85 mV) was then applied to cells at 5 Hz for 12 s until no further current change or inhibition was observed. The percent inhibition (expressed as ([Iafter compound treatment/Ibefore compound treatment]×100%) is calculated by normalizing the peak current amplitude at the last pulse of each of the 6 compound concentrations by the amplitude before exposure to the test compound. The compiled data was further normalized by vehicle control (DMSO) to account for Nav1.5 current run-down, and IC50 was calculated by Matlab (MathWorks, USA).
A general note: The patch-clamp technique gives a direct electrical read-out from membranes.

Series [2] addresses T1, human Nav1.5. Put plainly: Qpatch automated patch-clamp, peak Nav1.5 current inhibition, 1 Hz with 50 nM ATX-II (holding potential -100 mV). It is filed as cell-based. As to conditions: CHO-K1 cells stably expressing human Nav1.5, read-out: Nav1.5 IC50 (1 Hz, ATXII).
Source text: as §1, §2, §3
To assess peak Nav1.5 current inhibition mimicking a ventricular condition at sinus rate with or without ATX-II (Nav1.5 IC50 (1 Hz, ATXII) (μM) or (1 Hz, Sinus Rate) (μM)), compounds were first prepared at 10 mM in DMSO, and cells were pre-incubated with test compounds at each concentration for 3 min. in an ascending order of 0, 0.37, 1.1, 3.3, 10 and 30 uM. In the assay with ATX-II (Alomone Labs), 50 nM ATX-II was included during the 3-min. compound incubation. A square pulse (−10 mV; 400 ms and a holding potential at −100 mV) was run at 1 Hz for 25 s until no further inhibition or Nav1.5 current change was observed. The percent inhibition (expressed as ([Iafter compound treatment/Ibefore compound treatment]×100%) is calculated by normalizing the peak current amplitude at the last pulse of each of the 6 compound concentrations by the amplitude before exposure to the test compound. The compiled data was further normalized by vehicle control (DMSO) to account for Nav1.5 current run-down, and IC50 was calculated by Matlab (MathWorks, USA).

Setting [3] is: CHO-K1 cells stably expressing human Nav1.5, holding potential -85 mV, Table 5, read-out: Nav1.5 IC50 (5 Hz, AF Rate).
Setting [4] is: CHO-K1 cells stably expressing human Nav1.5, Table 6, Examples 63-90, read-out: Nav1.5 IC50 (5 Hz, AF Rate).

Regarding `CC(O)(CS(N)(=O)=O)c1cccc(-c2cn(Cc3cc(OC(F)(F)F)ccc3F)nn2)n1` (single isomer, unassigned) [Example 59, (R or S)-2-(6-(1-(2-fluoro-5-(trifluoromethoxy)benzyl)-1H-1,2,3-triazol-4-yl)pyridin-2-yl)-2-hydroxypropane-1-sulfonamide], the figures for the IC50 on human Nav1.5 [1] (setting [3]) and on human Nav1.5 [2] were 3.4 µM and 8.6 µM, respectively.

For the compound `CC(O)(CS(N)(=O)=O)c1cccc(-c2cnn(Cc3cc(OC(F)(F)F)ccc3F)n2)n1` (racemic) [Rac-61 + 62], the IC50 (usually the concentration that gives 50% inhibition) was 3.4 µM at human Nav1.5 [1] (setting [3]) and more than 30 µM at human Nav1.5 [2].

As to `CC(O)(CS(N)(=O)=O)c1cccc(-c2nnn(Cc3cc(OC(F)(F)F)ccc3F)n2)c1` (single isomer, unassigned) [Rac-25 + 26, (R or S)-2-(3-(2-(2-fluoro-5-(trifluoromethoxy)benzyl)-2H-tetrazol-5-yl)phenyl)-2-hydroxypropane-1-sulfonamide], the figures for the IC50 on human Nav1.5 [1] (setting [3]) and on human Nav1.5 [2] were 2.2 µM and more than 30 µM, respectively. On to `CC(O)(CS(N)(=O)=O)c1cccc(-c2ccn(Cc3cc(OC(F)(F)F)ccc3F)n2)n1` (single isomer, unassigned) [Example 38, (R or S)-2-(6-(1-(2-fluoro-5-(trifluoromethoxy)benzyl)-1H-pyrazol-3-yl)pyridin-2-yl)-2-hydroxypropane-1-sulfonamide], for which the IC50 at human Nav1.5 [1] (setting [3]) is 4.3 µM; at human Nav1.5 [2], more than 30 µM. Turning to `CC(O)(CS(N)(=O)=O)c1cccc(-c2cn(Cc3cc(OC(F)(F)F)ccc3F)nn2)n1` (single isomer, unassigned) [Rac-59 + 60, (R or S)-2-(6-(1-(2-fluoro-5-(trifluoromethoxy)benzyl)-1H-1,2,3-triazol-4-yl)pyridin-2-yl)-2-hydroxypropane-1-sulfonamide], the concentration for half-maximal inhibition (IC50) on human Nav1.5 [1] (setting [3]) turned out to be 5.2 µM; at human Nav1.5 [2] it was 15 µM.

`CC(O)(CS(N)(=O)=O)c1ccc(Cl)c(-c2nnn(Cc3cc(OC(F)(F)F)ccc3F)n2)n1` (single isomer, unassigned) [Example 28, (R or S)-2-(5-chloro-6-(2-(2-fluoro-5-(trifluoromethoxy)benzyl)-2H-tetrazol-5-yl)pyridin-2-yl)-2-hydroxypropane-1-sulfonamide]: the IC50 at human Nav1.5 [1] (setting [3]) came out at 0.7 µM; at human Nav1.5 [2], 3.2 µM.

For `CC(O)(CS(N)(=O)=O)c1cccc(-c2nc(Cc3cc(OC(F)(F)F)ccc3F)no2)n1` (single isomer, unassigned) [Example 58, (R or S)-2-(6-(3-(2-fluoro-5-(trifluoromethoxy)benzyl)-1,2,4-oxadiazol-5-yl)pyridin-2-yl)-2-hydroxypropane-1-sulfonamide], the IC50 on human Nav1.5 [1] (setting [3]) was 5 µM; at human Nav1.5 [2] it was more than 30 µM. Consider `CC(O)(CS(N)(=O)=O)c1cccc(-c2ccn(Cc3cc(OC(F)(F)F)ccc3F)n2)n1` (single isomer, unassigned) [Example 37, (R or S)-2-(6-(1-(2-fluoro-5-(trifluoromethoxy)benzyl)-1H-pyrazol-3-yl)pyridin-2-yl)-2-hydroxypropane-1-sulfonamide], for which the IC50 on human Nav1.5 [1] (setting [3]) turned out to be 1.3 µM; on human Nav1.5 [2], 14 µM. On the same counts, the results for `CC(O)(CS(N)(=O)=O)c1cccc(-c2nc(Cc3cc(OC(F)(F)F)ccc3F)no2)n1` (single isomer, unassigned) [Example 57, (R or S)-2-(6-(3-(2-fluoro-5-(trifluoromethoxy)benzyl)-1,2,4-oxadiazol-5-yl)pyridin-2-yl)-2-hydroxypropane-1-sulfonamide] are 3.6 µM and 27 µM. `CC(O)(CS(N)(=O)=O)c1cccc(-c2nnn(Cc3cc(OCC(F)(F)F)ccc3F)n2)n1` (single isomer, unassigned) [Example 29, (R or S)-2-(6-(2-(2-fluoro-5-(2,2,2-trifluoroethoxy)benzyl)-2H-tetrazol-5-yl)pyridin-2-yl)-2-hydroxypropane-1-sulfonamide]: on human Nav1.5 [1] (setting [3]), the IC50 came out at 0.8 µM.

Turning to `C[C@](O)(CS(N)(=O)=O)c1cccc(-c2nnn(Cc3ccc(Br)cc3F)n2)n1` [Example 65], at human Nav1.5 [1] (setting [4]), the 50% inhibitory concentration (IC50) was found to be 17 µM. As to `C[C@](O)(CS(N)(=O)=O)c1cccc(-c2nnn(Cc3cc(Cl)ccc3C(F)(F)F)n2)n1` [Example 89], the IC50 on human Nav1.5 [1] (setting [4]) was found to be 27 µM. As to `C[C@](O)(CS(N)(=O)=O)c1cccc(-c2nnn(Cc3cc(Cl)ccc3Cl)n2)n1` [Example 78], the IC50 at human Nav1.5 [1] (setting [4]) came out at 10 µM. Turning to `C[C@](O)(CS(N)(=O)=O)c1cccc(-c2nnn(Cc3c(F)ccc(Cl)c3F)n2)n1` [Example 73], on human Nav1.5 [1] (setting [4]), the IC50 is 19 µM. As to `CC(O)(CS(N)(=O)=O)c1cccc(-c2nnn(Cc3cc(OC(F)(F)F)ccc3F)n2)n1` (racemic) [Rac-1 + 2, 2-(6-(2-(2-fluoro-5-(trifluoromethoxy)benzyl)-2H-tetrazol-5-yl)pyridin-2-yl)-2-hydroxypropane-1-sulfonamide], the IC50 at human Nav1.5 [1] (setting [3]) amounted to 3.6 µM. The same measure, in the same setting: with `CCC(O)(CS(N)(=O)=O)c1cccc(-c2ccn(Cc3cc(OC(F)(F)F)ccc3F)n2)n1` (racemic) [Example 35, 2-(6-(1-(2-fluoro-5-(trifluoromethoxy)benzyl)-1H-pyrazol-3-yl)pyridin-2-yl)-2-hydroxybutane-1-sulfonamide] the figure was 4 µM; with `CC(C)(C(O)c1cccc(-c2ccn(Cc3cc(OC(F)(F)F)ccc3F)n2)n1)S(N)(=O)=O` (racemic) [Example 53, 1-(6-(1-(2-fluoro-5-(trifluoromethoxy)benzyl)-1H-pyrazol-3-yl)pyridin-2-yl)-1-hydroxy-2-methylpropane-2-sulfonamide], 12 µM.

Turning to `CC(C(O)c1cccc(-c2nnn(Cc3cc(OC(F)(F)F)ccc3F)n2)n1)S(N)(=O)=O` (single isomer, unassigned) [Example 50, (JR or 1S,2R or 2S)-1-(6-(2-(2-fluoro-5-(trifluoromethoxy)benzyl)-2H-tetrazol-5-yl)pyridin-2-yl)-1-hydroxypropane-2-sulfonamide], the IC50 at human Nav1.5 [1] (setting [3]) was 6.6 µM. On to `COc1ccc(F)c(Cn2nnc(-c3cccc([C@@](C)(O)CS(N)(=O)=O)n3)n2)c1` [Example 76], for which the IC50 at human Nav1.5 [1] (setting [4]) was 17 µM.

Take `Cc1ccc(F)c(Cn2nnc(-c3cccc([C@@](C)(O)CS(N)(=O)=O)n3)n2)c1Cl` [Example 63]: on human Nav1.5 [1] (setting [4]), the IC50 amounted to 3.8 µM. For `CC(O)(CS(N)(=O)=O)c1cccc(-c2nnn(Cc3cc(OCC(F)(F)F)ccc3F)n2)n1` (single isomer, unassigned) [Example 30, (R or S)-2-(6-(2-(2-fluoro-5-(2,2,2-trifluoroethoxy)benzyl)-2H-tetrazol-5-yl)pyridin-2-yl)-2-hydroxypropane-1-sulfonamide], the IC50 on human Nav1.5 [1] (setting [3]) is 1 µM. With `C[C@](O)(CS(N)(=O)=O)c1cccc(-c2nnn(Cc3cc(OC(F)(F)F)ccc3Cl)n2)n1` [Example 77], the IC50 on human Nav1.5 [1] (setting [4]) was 13 µM.
